Marks after values point to notes of the source that are not given here.
Assays:
[1] = Ulcerogenic effect (gastric mucosal lesions after oral dose); assay type: in vivo, Ratten; details: rat, gastric mucosa, fasted rats, killed 24 h after dose, UD50 by Litchfield and Wilcoxon, read-out: Ulzerogenität UD50
Excerpt: (§1) Die Untersuchungen erfolgten an männlichen Sprague-Dawley Ratten im Körpergewicht zwischen 200 und 300 g. 48 Stunden vor Applikation der Testsubstanzen bis zum Töten der Tiere wurde das Futter entzogen, bei freiem Zugang zum Trinkwasser. Die Ratten wurden 24 Stunden nach oraler Gabe getötet, der Magen entommen, unter fließendem Wasser gereinigt und auf Schleimhautlösionen inspiziert. Als Ulzera galten alle makroskopisch sichtbaren Läsionen. Bestimmt wurde der Anteil der Tiere mit Ulzera pro dosi und die UD50 nach Litchfield und Wilcoxon (J. Pharmacol. exp. Ther. 96, 99 (1949)).

[2] = system: männliche Ratten eines Wistar-Lewis-Stammes; assay: Adjuvant arthritis, preventive test (method of Pearson); assay type: in vivo; details: for ED50: Rattus norvegicus, 408 h, read-out: Adjuvans-Arthritis ED50; for Therapeut. Index UD50 / ED50: ratio of ulcerogenic UD50 to adjuvant arthritis ED50
Excerpt: 1. Adjuvans-Arthritis, praeventive Testung
Die Untersuchungen wurden nach der Methode von Pearson durchgeführt (Arthrit. Rheum. 2, 440 (1959)). Als Versuchstiere dienten männliche Ratten eines Wistar-Lewis-Stammes im Körpergewicht zwischen 130 und 200 g. Die zu prüfenden Verbindungen wurden täglich vom 1. bis 17. Versuchstag oral appliziert. Tiere einer Kontrollgruppe erhielten nur das Lösungsmittel. Als Wirkungskriterium diente die Herabsetzung der Pfoten-Volumenzunahme gegenüber der unbehandelten Kontrollgruppe. Die ED50-Werte wurden graphisch aus der Dosiswirkungskurve bestimmt.

Acute toxicity = details: mouse, in vivo, ip; NMRI mice, intraperitoneal, mortality within 7 days; read-out: Toxizität LD50-Bereich (Maus i.p.)
Excerpt: Die Bestimmung der LD50-Bereiche erfolgte standardgemäß über die innerhalb von 7 Tagen bei NMRI-Mäusen nach intraperitonealer Gabe auftretende Mortalität.

[3] = system: männlichen Sprague-Dawley Ratten; assay: Ulcerogenic effect (gastric mucosal lesions after oral dose); assay type: in vivo; details: fasted rats, killed 24 h after dose, UD50 by Litchfield and Wilcoxon
Excerpt: as §1

NMRI-Mäusen = details: literature value (Barnes and Eltherington, Drug Dosage in Laboratory Animals, 1973, p. 199); cited from earlier work
[4] = oral, daily from day 1 to 17, reduction of paw volume increase vs. control, ED50 read graphically from dose-response curve

Question: For `CCc1oncc1C(=O)Nc1ccc(C(F)(F)F)cc1` [Beispiel 1, N-(4-Trifluormethylphenyl)-5-äthylisoxazol-4-carboxamid], which TD50 at 24 h [1] is on record?
Answer: 70 mg/kg

Question: What about the ED50 [2, 4] of the same compound?
Answer: 6 mg/kg

Question: And the “Therapeut. Index UD50 / ED50” value [2]?
Answer: 12

Question: What about the LD50 at 168 h (Acute toxicity) of the same compound?
Answer: 150 to 300 mg/kg

Question: Which TD50 at 24 h [1] does the source give for `O=C(Nc1ccc(C(F)(F)F)cc1)c1cnoc1C(F)(F)F` [Beispiel 6, N-(4-Trifluormethylphenyl)-5-trifluormethylisoxazol-4-carboxamid] here?
Answer: 80 mg/kg

Question: What about the ED50 [2, 4] of the same compound?
Answer: 3 mg/kg

Question: And the “Therapeut. Index UD50 / ED50” value [2]?
Answer: 27

Question: With `Cc1oncc1C(=O)Nc1ccc(Oc2ccc(C(F)(F)F)cc2)cc1` [Beispiel 10, N-[4-(4-Trifluormethylphenoxy)-phenyl]-5-methylisoxazol-4-carboxamid] as the compound, how does the TD50 at 24 h [1] read?
Answer: 230 mg/kg

Question: And the ED50 [2, 4]?
Answer: 8 mg/kg

Question: And the “Therapeut. Index UD50 / ED50” value [2]?
Answer: 29

Question: What about the LD50 at 168 h (Acute toxicity) of the same compound?
Answer: 150 to 300 mg/kg

Question: For `Cc1oncc1C(=O)Nc1ccc(F)cc1` [P 25 24 959 Nr. 10, N-(4-Fluorphenyl)-5-methylisoxazol-4-carboxamid, reference compound], which TD50 at 24 h [1] is on record?
Answer: 250 mg/kg

Question: And the ED50 [2, 4]?
Answer: 15 mg/kg

Question: And the “Therapeut. Index UD50 / ED50” value [2]?
Answer: 17

Question: What about the LD50 at 168 h (Acute toxicity) of the same compound?
Answer: 200 to 400 mg/kg

Question: Which results are given for “Phenylbutazon [Phenyl=butazon, reference compound]”?
Answer: Ulzerogenität UD50 [3]: 100 mg/kg; Toxizität LD50 (Maus i.p.) (NMRI-Mäusen): LD50 = 336^* mg/kg; Adjuvans-Arthritis ED50 ([2]; oral, daily from day 1 to 17, reduction of paw volume increase vs. control, ED50 read graphically from dose-response curve, 24480 min): 37 mg/kg

Reference: patent EP0012435A2, “Isoxazole derivatives, process for their preparation, medicines containing them and intermediates required in this process” (HOECHST AKTIENGESELLSCHAFT, priority 1978, dated 1980)
